Measurements: US8227429B2, “Macrolide synthesis process and solid-state forms” (Intervet International B.V., priority 2006, dated 2012)
Structures can show the parent of a compound that is named as a salt. Where two headings read alike, the source gives them in different places.

Legend:
[1] = Relative solid-state stability (Applicants' observations); type: physicochemical
[2] = Thermogravimetry coupled to FTIR (TG-FTIR); type: physicochemical
Protocol: Measurements of thermogravimetry coupled to Fourier transform infrared spectroscopy (“TG-FTIR”) were obtained using a Netzsch Thermo-Microbalance TG 209 with a Bruker Vector 22 FT-IR Spectrometer using an aluminum crucible (with micro-hole or open), N2 atmosphere, heating rate of 10° C./min, and temperature range of 25-250° C.

[3] = Dynamic vapor sorption (DVS) water uptake; type: physicochemical; conditions: 25° C.; for maximum water uptake: at 95% relative humidity
Protocol: Dynamic vapor sorption (“DVS”) measurements were obtained with a Projekt Messtechnik SPS11-100n water vapor sorption analyzer. The samples were placed into aluminum crucibles on a microbalance, and allowed to equilibrate at 25° C. and 50% relative humidity before initiating the following pre-defined humidity program at 25° C.: 50-95-0-50% relative humidity, and scanning with a 5% change in relative humidity per hour and with iso-humid equilibration periods at extreme values.

Thermogravimetry (TG) = type: physicochemical
Protocol: Thermogravimetry (“TG”) measurements were obtained with a Perkin Elmer TGS 2 thermogravimetric analyzer using an aluminum crucible (open), N2 atmosphere, heating rate of 10° C./min, and temperature range of 25-500° C.

[4] = Desolvation / stability on drying under vacuum
Protocol: In one experiment, the S2 crystalline solvate was prepared by dissolving the Form II polymorph of 20,23-dipiperidinyl-5-O-mycaminosyl-tylonolide (245.7 mg) in tert-butyl methyl ether (0.5 ml), and slowly evaporating a portion of the solvent at ambient temperature. After no crystals formed, additional tert-butyl methyl ether was added, followed by seeding S2 solvate crystals from the first batch. The solvent was then allowed to evaporate completely. […] In further testing, the crystals were vacuum-dried at ambient temperature for 20 hours, and then dried again under vacuum for 24 hours at about 70° C.

Solubility in tBME = type: physicochemical

CC[C@H]1OC(=O)C[C@@H](O)[C@H](C)[C@@H](OC2OC(C)C(O)C(N(C)C)C2O)[C@@H](CCN2CCCCC2)C[C@@H](C)C(=O)/C=C/C(C)=C/[C@@H]1CN1CCCCC1 (stereo in doubt) [Form I polymorph]
stability relative to other solid-state forms [1]: greater stability at ambient temperature than the other above-listed solid-state forms
weight loss ([2]; temperature range of from 60 to 180° C., attributed to water loss): 0.6%
maximum water uptake [3]: less than 1 % (by weight)

CC[C@H]1OC(=O)C[C@@H](O)[C@H](C)[C@@H](OC2OC(C)C(O)C(N(C)C)C2O)[C@@H](CCN2CCCCC2)C[C@@H](C)C(=O)/C=C/C(C)=C/[C@@H]1CN1CCCCC1 (stereo in doubt) [Form II polymorph]
temperature at which decomposition began [2]: greater than 220 °C
weight loss ([2]; mainly in the temperature range of from 50 to 100° C., attributed to water loss): 0.7%
maximum water uptake [3]: about 2 % (by weight)

CC[C@H]1OC(=O)C[C@@H](O)[C@H](C)[C@@H](OC2OC(C)C(O)C(N(C)C)C2O)[C@@H](CCN2CCCCC2)C[C@@H](C)C(=O)/C=C/C(C)=C/[C@@H]1CN1CCCCC1 (stereo in doubt) [Form III polymorph]
temperature at which decomposition began (Thermogravimetry (TG)): greater than 270 °C
weight loss (Thermogravimetry (TG); up to 200° C.): less than 0.05%
weight loss ([2]; up to 220° C., most between 50 and 120° C.): 1.7%
water uptake ([3]; between 70 and 85% relative humidity): about 6%

CC[C@H]1OC(=O)C[C@@H](O)[C@H](C)[C@@H](OC2OC(C)C(O)C(N(C)C)C2O)[C@@H](CCN2CCCCC2)C[C@@H](C)C(=O)/C=C/C(C)=C/[C@@H]1CN1CCCCC1 (stereo in doubt) [THF S3 crystalline solvate]
weight loss due to liberation of solvent ([2]; at temperatures greater than 100° C.): about 8.1%

CC[C@H]1OC(=O)C[C@@H](O)[C@H](C)[C@@H](OC2OC(C)C(O)C(N(C)C)C2O)[C@@H](CCN2CCCCC2)C[C@@H](C)C(=O)/C=C/C(C)=C/[C@@H]1CN1CCCCC1 (stereo in doubt) [diethyl ketone S1 crystalline solvate]
weight loss due to liberation of solvent [2]: 10%

CC[C@H]1OC(=O)C[C@@H](O)[C@H](C)[C@@H](OC2OC(C)C(O)C(N(C)C)C2O)[C@@H](CCN2CCCCC2)C[C@@H](C)C(=O)/C=C/C(C)=C/[C@@H]1CN1CCCCC1 (stereo in doubt) [ethanol S1 crystalline solvate]
weight loss due to liberation of solvent ([2]; up to 200° C.): approximately 6.6%

CC[C@H]1OC(=O)C[C@@H](O)[C@H](C)[C@@H](OC2OC(C)C(O)C(N(C)C)C2O)[C@@H](CCN2CCCCC2)C[C@@H](C)C(=O)/C=C/C(C)=C/[C@@H]1CN1CCCCC1 (stereo in doubt) [ethyl acetate S1 crystalline solvate]
result of vacuum drying ([4]; ambient temperature): readily converted into the Form III polymorph
weight loss due to liberation of solvent [2]: approximately 4.1%

CC[C@H]1OC(=O)C[C@@H](O)[C@H](C)[C@@H](OC2OC(C)C(O)C(N(C)C)C2O)[C@@H](CCN2CCCCC2)C[C@@H](C)C(=O)/C=C/C(C)=C/[C@@H]1CN1CCCCC1 (stereo in doubt) [ethyl formate crystalline solvate]
temperature at which desolvation was nearly completed [2]: ~130 °C
weight loss due to liberation of solvent [2]: about 7.7%

CC[C@H]1OC(=O)C[C@@H](O)[C@H](C)[C@@H](OC2OC(C)C(O)C(N(C)C)C2O)[C@@H](CCN2CCCCC2)C[C@@H](C)C(=O)/C=C/C(C)=C/[C@@H]1CN1CCCCC1 (stereo in doubt) [tBME S2 crystalline solvate]
weight loss due to liberation of solvent [2]: 8.7-10%
solubility (Solubility in tBME; organic solvent or mixture): 40 to 50 mg/mL
solubility in tBME relative to the Form II polymorph (Solubility in tBME; solvent tBME): at least one order of magnitude less

CC[C@H]1OC(=O)C[C@@H](O)[C@H](C)[C@@H](OC2OC(C)C(O)C(N(C)C)C2O)[C@@H](CCN2CCCCC2)C[C@@H](C)C(=O)/C=C/C(C)=C/[C@@H]1CN1CCCCC1 (stereo partly shown) [methyl acetate crystalline solvate]
temperature at which desolvation was nearly completed [2]: ~160 °C
weight loss due to liberation of solvent [2]: about 8.4%

CC[C@H]1OC(=O)C[C@@H](O)[C@H](C)[C@@H](OC2OC(C)C(O)C(N(C)C)C2O)[C@@H](CCN2CCCCC2)C[C@@H](C)C(=O)/C=C/C(C)=C/[C@@H]1CN1CCCCC1 (stereo partly shown) [tBME S2 crystalline solvate]
stability relative to other solid-state forms ([1]; listed as tBME crystalline solvate): more stable than the ethyl acetate S1 crystalline solvate
stability ([4]; 60° C. at 1 mbar (absolute) for 1 day): exhibits stability
result of drying under vacuum ([4]; ambient temperature and 70° C.): no loss of solvent was observed
